Test results taken from PMC11285368, “Chasing Red Herrings: Palladium Metal Salt Impurities Feigning KRAS Activity in Biochemical Assays” (Journal of Medicinal Chemistry, 2024).

What was measured:
Format in all cases: biochemical
SOS1 = target: T1, SOS1 (Homo sapiens, UniProt Q07889); assay: SOS1 AlphaScreen, Target #1
T1 sequence (Q07889 1-1333): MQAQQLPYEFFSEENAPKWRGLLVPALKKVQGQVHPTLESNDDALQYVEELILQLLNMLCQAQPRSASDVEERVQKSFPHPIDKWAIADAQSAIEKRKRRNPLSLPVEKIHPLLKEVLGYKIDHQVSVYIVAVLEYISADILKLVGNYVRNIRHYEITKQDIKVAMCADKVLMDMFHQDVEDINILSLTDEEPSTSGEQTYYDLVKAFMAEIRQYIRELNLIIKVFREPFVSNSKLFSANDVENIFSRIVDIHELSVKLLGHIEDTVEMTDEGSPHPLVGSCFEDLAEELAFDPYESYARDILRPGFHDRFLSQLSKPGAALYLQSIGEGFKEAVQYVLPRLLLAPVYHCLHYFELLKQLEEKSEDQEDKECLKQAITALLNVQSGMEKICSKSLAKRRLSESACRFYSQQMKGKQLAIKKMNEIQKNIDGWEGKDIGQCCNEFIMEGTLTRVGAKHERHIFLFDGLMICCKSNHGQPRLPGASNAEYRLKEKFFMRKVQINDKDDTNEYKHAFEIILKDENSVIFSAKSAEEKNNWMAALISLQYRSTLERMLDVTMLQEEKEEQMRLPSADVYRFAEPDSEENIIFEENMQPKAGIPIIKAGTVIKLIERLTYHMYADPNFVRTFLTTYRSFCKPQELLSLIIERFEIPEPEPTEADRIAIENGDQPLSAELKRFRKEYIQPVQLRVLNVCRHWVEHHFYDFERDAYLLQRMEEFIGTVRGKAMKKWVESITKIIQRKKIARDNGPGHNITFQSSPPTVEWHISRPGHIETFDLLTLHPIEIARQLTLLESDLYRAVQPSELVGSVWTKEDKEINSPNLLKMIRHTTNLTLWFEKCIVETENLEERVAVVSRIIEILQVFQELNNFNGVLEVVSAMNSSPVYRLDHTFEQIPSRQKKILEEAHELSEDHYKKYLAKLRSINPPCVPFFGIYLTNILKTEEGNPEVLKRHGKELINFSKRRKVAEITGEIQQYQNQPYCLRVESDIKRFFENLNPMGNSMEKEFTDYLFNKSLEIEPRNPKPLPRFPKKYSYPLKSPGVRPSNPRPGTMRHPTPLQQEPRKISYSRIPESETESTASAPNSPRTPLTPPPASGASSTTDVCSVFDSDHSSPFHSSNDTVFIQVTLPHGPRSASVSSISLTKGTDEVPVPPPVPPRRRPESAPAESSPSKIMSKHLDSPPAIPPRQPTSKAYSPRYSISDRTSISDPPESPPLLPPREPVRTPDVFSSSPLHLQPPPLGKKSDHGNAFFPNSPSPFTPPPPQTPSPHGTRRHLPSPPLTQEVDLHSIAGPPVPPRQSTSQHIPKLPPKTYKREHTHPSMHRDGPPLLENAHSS
Method: (§1) Metal salt solutions for the metal ion interference set (MIIS) were prepared as 10 mM stock solutions in DMSO (see Table 3). All metal salts used have been purchased at highest industrial grade.

MDM2 = MDM2 (Homo sapiens, UniProt Q00987); assay: MDM2 AlphaScreen, Target #1
Sequence of MDM2 (Q00987 whole entry, species assumed): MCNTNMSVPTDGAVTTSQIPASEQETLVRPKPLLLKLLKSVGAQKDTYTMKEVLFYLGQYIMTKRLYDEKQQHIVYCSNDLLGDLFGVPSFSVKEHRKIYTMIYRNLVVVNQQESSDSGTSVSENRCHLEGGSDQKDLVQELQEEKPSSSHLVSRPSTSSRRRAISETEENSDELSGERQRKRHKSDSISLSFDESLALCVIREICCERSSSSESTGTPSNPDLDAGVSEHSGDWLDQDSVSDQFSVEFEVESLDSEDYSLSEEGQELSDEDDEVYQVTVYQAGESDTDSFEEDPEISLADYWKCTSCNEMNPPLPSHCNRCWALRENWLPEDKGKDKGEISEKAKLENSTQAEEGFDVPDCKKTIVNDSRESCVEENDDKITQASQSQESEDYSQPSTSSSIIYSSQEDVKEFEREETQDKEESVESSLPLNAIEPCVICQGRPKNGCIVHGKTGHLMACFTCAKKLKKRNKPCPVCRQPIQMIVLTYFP
Method: as §1

NSD3 = target: T2, NSD3 (Homo sapiens, UniProt Q9BZ95); assay: NSD3 TR-FRET; conditions: read-out: Target #1 IC50
T2 sequence (Q9BZ95 1-1437): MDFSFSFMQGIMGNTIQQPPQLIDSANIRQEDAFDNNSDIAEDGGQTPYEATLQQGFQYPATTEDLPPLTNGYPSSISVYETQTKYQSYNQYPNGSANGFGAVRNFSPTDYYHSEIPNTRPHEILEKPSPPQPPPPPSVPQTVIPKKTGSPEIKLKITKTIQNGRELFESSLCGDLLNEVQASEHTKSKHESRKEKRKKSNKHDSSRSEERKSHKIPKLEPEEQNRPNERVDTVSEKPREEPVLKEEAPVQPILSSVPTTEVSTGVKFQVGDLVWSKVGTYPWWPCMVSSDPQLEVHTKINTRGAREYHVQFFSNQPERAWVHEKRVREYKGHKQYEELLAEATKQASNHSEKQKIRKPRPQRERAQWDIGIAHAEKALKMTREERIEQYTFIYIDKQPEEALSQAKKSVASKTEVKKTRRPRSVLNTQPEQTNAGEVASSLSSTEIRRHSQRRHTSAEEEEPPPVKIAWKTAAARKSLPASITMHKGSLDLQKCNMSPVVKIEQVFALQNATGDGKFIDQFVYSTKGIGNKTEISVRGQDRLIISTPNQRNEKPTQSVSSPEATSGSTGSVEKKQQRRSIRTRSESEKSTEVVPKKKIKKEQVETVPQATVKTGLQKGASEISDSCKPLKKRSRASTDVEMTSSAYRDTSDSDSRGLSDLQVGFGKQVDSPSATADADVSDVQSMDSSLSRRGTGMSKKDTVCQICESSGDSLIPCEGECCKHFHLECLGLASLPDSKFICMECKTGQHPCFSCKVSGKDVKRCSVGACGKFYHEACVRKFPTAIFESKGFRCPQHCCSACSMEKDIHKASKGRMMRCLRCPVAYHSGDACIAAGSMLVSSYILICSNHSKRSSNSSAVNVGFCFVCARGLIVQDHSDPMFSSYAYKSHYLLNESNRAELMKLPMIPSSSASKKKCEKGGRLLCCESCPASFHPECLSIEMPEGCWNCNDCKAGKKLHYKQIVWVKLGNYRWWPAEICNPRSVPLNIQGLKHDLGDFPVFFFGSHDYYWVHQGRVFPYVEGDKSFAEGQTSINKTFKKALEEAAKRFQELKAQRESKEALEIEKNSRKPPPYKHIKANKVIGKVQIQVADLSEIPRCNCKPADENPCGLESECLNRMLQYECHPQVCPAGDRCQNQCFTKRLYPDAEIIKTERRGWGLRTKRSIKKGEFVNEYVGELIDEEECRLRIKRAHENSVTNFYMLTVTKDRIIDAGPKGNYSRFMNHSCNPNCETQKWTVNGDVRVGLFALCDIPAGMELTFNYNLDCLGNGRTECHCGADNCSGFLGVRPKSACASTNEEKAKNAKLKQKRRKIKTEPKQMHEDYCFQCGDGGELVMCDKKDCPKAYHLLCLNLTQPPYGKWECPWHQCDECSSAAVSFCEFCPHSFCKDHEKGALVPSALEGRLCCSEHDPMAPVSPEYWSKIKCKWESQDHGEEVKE
Method: as §1

KRAS GDP = assay: KRAS AlphaScreen, Target #1
Method: as §1

BCL6 = BCL6 (Homo sapiens, UniProt P41182); assay: BCL6 Fluorescence Polarization; conditions: read-out: Target #1 IC50
Method: as §1

off-target (int.) = assay: WRN ADP-Glo, Target #3
Method: as §1

off-target [1] = assay: MDM2 AlphaScreen, Target #2
Method: as §1

off-target [2] = assay: UPA-UPAR AlphaScreen, Target #2
Method: as §1

IC50 (SOS1) [µM]	IC50 (MDM2) [µM]	IC50 (NSD3) [µM]	IC50 (KRAS GDP) [µM]	IC50 (BCL6) [µM]	IC50 (off-target (int.)) [µM]	IC50 (off-target [2]) [µM]	SMILES	IC50 (off-target [1]) [µM]
< 1	> 10	< 1	1 to 10	> 10	> 10	1 to 10	[Cl][Au]([Cl])[Cl] [AuCl3, Gold(III) chloride]	> 10
1 to 10	> 10	> 10	> 10	> 10	> 10	> 10	[Cl][Cu][Cl] [CuCl2, Copper(II) chloride]	> 10
> 10	> 10	> 10	1 to 10	> 10	> 10	> 10	[Cl][Fe][Cl] [FeCl2, Iron(II) chloride]	
> 10	> 10	> 10	1 to 10	> 10	> 10	> 10	[Cl][Fe]([Cl])[Cl] [FeCl3, Iron(III) chloride]	> 10
> 10	> 10	> 10	> 10	> 10	> 10	> 10	[Cl-].[Cl-].[Mg+2] [MgCl2, Magnesium chloride]	> 10
> 10	> 10	> 10	> 10	> 10	> 10	> 10	[Cl][Mn][Cl] [MnCl2, Manganese(II) chloride]	> 10
> 10	> 10	> 10	> 10	> 10	> 10	> 10	[Cl-].[Cl-].[Zn+2] [ZnCl2, Zinc(II) chloride]	> 10

SMILES	IC50 (SOS1) [µM]	IC50 (MDM2) [µM]	IC50 (NSD3) [µM]	IC50 (KRAS GDP) [µM]	IC50 (BCL6) [µM]	IC50 (off-target (int.)) [µM]	IC50 (off-target [2]) [µM]	IC50 (off-target [1]) [µM]
CC(=O)[O-].[Ag+] [Ag (CH 3COO), Silver acetate]	< 1	> 10	1 to 10	> 10	> 10	> 10		> 10
O=[N+]([O-])[O-].O=[N+]([O-])[O-].O=[N+]([O-])[O-].[Al+3] [Al(NO3)3, Aluminum nitrate]	> 10	> 10	> 10	> 10	> 10	1 to 10	> 10	> 10
[Cl-].[Cl-].[Co+2] [CoCl2, Cobalt(II) chloride]	> 10	> 10	> 10	> 10	> 10	> 10	> 10	> 10
[Cl][Ni][Cl] [NiCl2, Nickel(II) chloride]	> 10	> 10	> 10	> 10	> 10	> 10	> 10	> 10
[Cl][Pd][Cl] [PdCl2, Palladium(II) chloride]	< 1	> 10	> 10	< 1	> 10	< 1	< 1	> 10
[Cl][Sn][Cl] [SnCl2, Tin(II) chloride]	> 10	> 10	< 1	> 10	> 10	> 10	> 10	> 10
